{"source": "patent US11819476B2", "about": "“Rapamycin analogs and uses thereof” (Janssen Pharmaceutica NV, priority 2019, dated 2023)", "type_in_all_cases": "cell-based", "key": {"[1]": {"test_system": "mTORC1 over mTORC2", "test": "mTORC1 selectivity over mTORC2 at 24 hrs (pS6K1 and pAKT assays)", "conditions": "for mTORC1 selective @ 24 hrs: selectivity for mTORC1 over mTORC2 at 24 hrs", "method": "(§1) Example 76: Western Blot Based pS6K1 and pAKT Assay at 24 and 48 Hour Timepoints\n(§2) Assay Protocol: • 1. Seed six well plate with 500,000 PC3 cells per well and incubate for […]. • 2. Add compounds into the cell plate. Incubate for 24 to 48 hours. • 4. Plate is placed on ice and the media is removed via aspiration. The wells are washed with 1 mL of 1×PBS and then fully aspirated. • 5. 110 μL of 1% Triton Lysis Buffer is added and each well is scraped vigorously. • 6. Cell homogenates are transferred to 1.5 mL eppendorf tubes on ice and spun down at 4° C. for 10 minutes at 10,000 rpm. • 7. Protein concentration of resulting cell lysates were quantified utilizing a Bradford assay and the samples run analyzed via Western blot on 4-12% Bis/Tris gels with 1×MES buffer. • 8. The gels were transferred onto membranes at 50V for 100 minutes, blocked with Odyssey Blocking buffer for 30 minutes then incubated overnight with primary antibody (pS6K1 T389 Rabbit or pAkt S473 Rabbit) overnight at 4° C. on a rotator. • 9. The membranes were washed 3× with TBS-T with a 5 minute incubation between each wash then incubated with secondary antibody (LiCor IRDye 800 Donkey Anti Rabbit) for at least 30 minutes. • 10. The membranes were washed 3× with TBS-T with a 5 minute incubation between each wash. • 11. The gels were then incubated for 5 minutes with PBS at room temperature then imaged using a Li-Cor.\nThe compound numbers correspond to the compound numbers in Table 1.\nCompounds that are not selective at the 24 hrs mark are indicated by “NO” in the “mTORC1 selective @ 24 hrs” column of Table 4. Compounds that partially retain selectivity for mTORC1 inhibition over mTORC2 are indicated by “Partial” in the “mTORC1 selective @ 24 hrs” column of Table 4."}, "[2]": {"test_system": "pS6K1 T389 in PC3 cells (mTORC1 pathway)", "test": "Western blot based pS6K1 assay (mTORC1 pathway)", "conditions": "24 hours", "method": "as §1, §2\nPC3 cells were treated with everolimus (0.1 μM, 0.01 μM, and 0.001 μM) or I-9 ([…], 0.1 μM, 0.01 μM, and 0.001 μM) for 24 hours.\nThe methods employed were substantially similar to those described above. Compounds were evaluated in PC3 cells. Additional cell lines that may be used include Jurkat cells, wild-type mouse embryotic fibroblast (MEF) cells, tuberous sclerosis 2 (TSC2) negative (TSC−/−) MEF cells, and tuberous sclerosis 2 (TSC2) positive (TSC+/+) MEF cells. Cells are incubated with compounds of the present invention for various time periods (e.g., 5 minutes, 15 minutes, 30 minutes, 90 minutes, 24 hours, or 48 hours), and evaluated according to known methodologies, such as those herein described."}, "[3]": {"test_system": "pAkt S473 in PC3 cells (mTORC2)", "test": "Western blot based pAKT assay (mTORC2 pathway)", "conditions": "24 hours", "method": "as §1\nas §2, with “The membranes were washed 3× with TBS-T with a 5 minute incubation between each wash then incubated with secondary antibody (LiCor IRDye 800 Donkey Anti Rabbit) for at least 30 minutes. • 10. The membranes were washed 3× with TBS-T with a 5 minute incubation between each wash. • 11. The gels were then incubated for 5 minutes with PBS at room temperature then imaged using a Li-Cor.” left out\nThe methods employed were substantially similar to those described above. Compounds were evaluated in PC3 cells. […] Cells are incubated with compounds of the present invention for various time periods (e.g., 5 minutes, 15 minutes, 30 minutes, 90 minutes, 24 hours, or 48 hours), and evaluated according to known methodologies, such as those herein described."}, "[4]": {"test_system": "pS6K1 in MCF7", "test": "AlphaLISA Ultra pS6K1 Assay", "conditions": "Homo sapiens, 1.5 h; MCF7 cells, 90 min incubation", "method": "Example 74: AlphaLISA Ultra pS6K1 Assay\nAssay Protocol: • 1. Seed MCF-7 cells in Corning 3701 plate and incubate for 20˜24 hour. 12,000˜16,000 cells will be seeded in 36 μL medium per well. • 2. Change the culture medium with fresh medium and incubate for another 2 hours. • 3. Add 12 μL (4×) compounds into the cell plate by HAMILTON. Final DMSO concentration is 0.5%. Incubate for 90 minutes. • 4. Aspirate 38 μL by HAMILTON, 10 μL rest per well. • 5. Add 10 μL 2× lysis buffer using HAMILTON; total volume in wells is 20 μL. Allow cells to shake for 30 min. Cover plate by plastic foil and store plate at −80° C. up to analysis. • 6. Thaw cell lysate at RT and transfer 10 μL lysate to assay plate (Optiplate-384). • 7. Add 5 μL acceptor beads into assay plate and incubation for 2 hours • 8. Add 5 μL donor beads and incubation for 2 hours • 9. Count the plate by EnSpire Multimode Plate Reader"}}, "note": "“Also recorded” adds a separate entry of the source.", "data": [{"smiles": "CO[C@@H]1C[C@H](C[C@@H](C)[C@@H]2CC(=O)[C@H](C)/C=C(\\C)[C@@H](O)[C@@H](OC)C(=O)[C@H](C)C[C@H](C)/C=C/C=C/C=C(\\C)C(OCCCCS(N)(=O)=O)C[C@@H]3CC[C@@H](C)[C@@](O)(O3)C(=O)C(=O)N3CCCC[C@H]3C(=O)O2)CC[C@H]1OCCO", "note": "(stereo partly shown) [Example I-19]", "values": [{"measurement": "selectivity over mTORC2 as measured by the impact of pAKT", "setting": "[1]; at 24 hours, depends on size of C-7 group", "value": "marked selectivity"}]}, {"smiles": "CO[C@H]1C[C@@H]2CC[C@@H](C)[C@@](O)(O2)C(=O)C(=O)N2CCCC[C@H]2C(=O)O[C@H]([C@H](C)C[C@@H]2CC[C@@H](OCCO)[C@H](OC)C2)CC(=O)[C@H](C)/C=C(\\C)[C@@H](O)[C@@H](OC)C(=O)[C@H](C)C[C@H](C)/C=C/C=C/C=C/1C", "note": "[everolimus, reference compound]", "values": [{"measurement": "inhibition of the mTORC1 pathway (pS6K1, Western blot)", "setting": "[2]", "value": "reduction in pS6K1; also recorded: strong inhibition"}, {"measurement": "inhibition of mTORC2 (Akt phosphorylation, pAkt, Western blot)", "setting": "[3]", "value": "inhibition of S6K1 phosphorylation (S^473)"}]}, {"smiles": "CO[C@@H]1C[C@H](C[C@@H](C)[C@@H]2CC(=O)[C@H](C)/C=C(\\C)[C@@H](O)[C@@H](OC)C(=O)[C@H](C)C[C@H](C)/C=C/C=C/C=C(\\C)[C@@H](OCCCO)C[C@@H]3CC[C@@H](C)[C@@](O)(O3)C(=O)C(=O)N3CCCC[C@H]3C(=O)O2)CC[C@H]1O", "note": "[Example I-36, (21E,23E,25E,26E,31R,32S,33R,34R,36S,38S,40S,41S,42S,43R,52R)-42,52-dihydroxy-41-[(1R)-2-[(1S,3R,4R)-4-hydroxy-3-methoxy-cyclohexyl]-1-methyl-ethyl]-40-(3-hydroxypropoxy)-43-methoxy-31,32,33,34,44,45-hexamethyl-63,64-dioxa-53-azatricyclohexatriaconta-21,23,25(44),26(45)-tetraene-46,47,48,49,50-pentone]", "values": [{"measurement": "IC50", "setting": "[4]", "value": "0.1 to 1", "unit": "nM"}, {"measurement": "mTORC1 selective @ 24 hrs", "setting": "[1]", "value": "Yes"}]}, {"smiles": "CO[C@@H]1C[C@H](C[C@@H](C)[C@@H]2CC(=O)[C@H](C)/C=C(\\C)[C@@H](O)[C@@H](OC)C(=O)[C@H](C)C[C@H](C)/C=C/C=C/C=C(\\C)[C@@H](OCCCCCO)C[C@@H]3CC[C@@H](C)[C@@](O)(O3)C(=O)C(=O)N3CCCC[C@H]3C(=O)O2)CC[C@H]1O", "note": "[Example I-35, (21E,23E,25E,26E,33R,34S,35R,36R,38S,40S,42S,43S,44R,45R,54R)-44,54-dihydroxy-43-[(1R)-2-[(1S,3R,4R)-4-hydroxy-3-methoxy-cyclohexyl]-1-methyl-ethyl]-42-(5-hydroxypentoxy)-45-methoxy-33,34,35,36,46,47-hexamethyl-65,66-dioxa-55-azatricyclohexatriaconta-21,23,25(46),26(47)-tetraene-48,49,50,51,52-pentone]", "values": [{"measurement": "IC50", "setting": "[4]", "value": "0.1 to 1", "unit": "nM"}, {"measurement": "mTORC1 selective @ 24 hrs", "setting": "[1]", "value": "Yes"}]}, {"smiles": "CO[C@@H]1C[C@H](C[C@@H](C)[C@@H]2CC(=O)[C@H](C)/C=C(\\C)[C@@H](O)[C@@H](OC)C(=O)[C@H](C)C[C@H](C)/C=C/C=C/C=C(\\C)[C@@H](OCCOc3ccccc3)C[C@@H]3CC[C@@H](C)[C@@](O)(O3)C(=O)C(=O)N3CCCC[C@H]3C(=O)O2)CC[C@H]1OCCO", "note": "[Example I-7, (26E,28E,30E,31E,38R,39S,40R,41R,43S,45S,47S,48S,49R,50R,59R)-49,59-dihydroxy-48-[(1R)-2-[(1S,3R,4R)-4-(2-hydroxyethoxy)-3-methoxy-cyclohexyl]-1-methyl-ethyl]-50-methoxy-38,39,40,41,51,52-hexamethyl-47-(2-phenoxyethoxy)-69,70-dioxa-60-azatricyclohexatriaconta-26,28,30(51),31(52)-tetraene-53,54,55,56,57-pentone]", "values": [{"measurement": "IC50", "setting": "[4]", "value": "1 to 10", "unit": "nM"}, {"measurement": "mTORC1 selective @ 24 hrs", "setting": "[1]", "value": "Yes"}]}, {"smiles": "CO[C@@H]1C[C@H](C[C@@H](C)[C@@H]2CC(=O)[C@H](C)/C=C(\\C)[C@@H](O)[C@@H](OC)C(=O)[C@H](C)C[C@H](C)/C=C/C=C/C=C(\\C)[C@@H](OCCCCC(N)=O)C[C@@H]3CC[C@@H](C)[C@@](O)(O3)C(=O)C(=O)N3CCCC[C@H]3C(=O)O2)CC[C@H]1OCCO", "note": "[Example I-48]", "values": [{"measurement": "inhibition of the mTORC1 pathway (pS6K1, Western blot)", "setting": "[2]", "value": "strong inhibition"}]}]}
